Source: ChEMBL document CHEMBL5505999, “Discovery of anti-inflammatory agents from 3, 4-dihydronaphthalene-1(2H)-one derivatives by inhibiting NLRP3 inflammasome activation” (Eur J Med Chem, 2024)

How the values were obtained:
[1] = Cytotoxicity against mouse RAW264.7 cells assessed as survival rate at 2.5 uM incubated overnight by CCK-8 assay relative to control; type: toxicity, cell-based; settings: read-out: Survival
RAW264.7 [2] = assay: Anti-inflammatory activity in mouse RAW264.7 cells assessed as inhibition of LPS-induced TNF-alpha production at 2.5 uM pretreated with compound for 2 hrs followed by LPS addition and measured after 22 hrs by ELISA relative to control; type: functional; settings: time 24 hrs
RAW264.7 [3] = assay: Anti-inflammatory activity in mouse RAW264.7 cells assessed as inhibition of LPS-induced IL-6 production at 2.5 uM pretreated with compound for 2 hrs followed by LPS addition and measured after 22 hrs by ELISA relative to control; type: functional; settings: time 24 hrs
RAW264.7 [4] = assay: Anti-inflammatory activity in mouse RAW264.7 cells assessed as inhibition of LPS-induced TNF-alpha production at 10 uM pretreated with compound for 2 hrs followed by LPS addition and measured after 22 hrs by ELISA relative to control; type: functional; settings: time 24 hrs
RAW264.7 [5] = assay: Anti-inflammatory activity in mouse RAW264.7 cells assessed as inhibition of LPS-induced IL-6 production at 10 uM pretreated with compound for 2 hrs followed by LPS addition and measured after 22 hrs by ELISA relative to control; type: functional; settings: time 24 hrs

SMILES	viability at 2.5 µM [1] [%]	inhibition at 2.5 µM (RAW264.7 [2]) [%]	inhibition at 2.5 µM (RAW264.7 [3]) [%]	inhibition at 10 µM (RAW264.7 [4]) [%]	inhibition at 10 µM (RAW264.7 [5]) [%]
CN1CCN(c2ccc(/C=C3\CCc4cc(F)ccc4C3=O)cc2)CC1	90.5	37.1	48.4	–	–
COc1ccc2c(c1)C(=O)/C(=C/c1ccc(N3CCOCC3)nc1)CC2	82.4	27.6	44.3	–	–
O=C1/C(=C/c2ccc(N3CCOCC3)nc2)CCc2cc(F)ccc21	85.2	31	47.7	–	–
CN1CCN(c2ccc(/C=C3\CCc4ccc(O)cc4C3=O)cc2)CC1	103	41.1	56.3	–	–
O=C1/C(=C/c2ccc(N3CCOCC3)nc2)CCc2ccc(F)cc21	99.8	23.8	40.2	–	–
CN1CCN(c2ccc(/C=C3\CCc4ccc(Br)cc4C3=O)cc2)CC1	116	49.8	62.6	–	–
CN1CCN(c2ccc(/C=C3\CCc4ccc(O)cc4C3=O)cn2)CC1	85.5	55.9	66.6	–	–
O=C1/C(=C/c2ccc(-n3ccnc3)cc2)CCc2cc(Br)ccc21	82.6	32.4	49	–	–
COc1ccc2c(c1)CC/C(=C\c1ccc(-n3ccnc3)cc1)C2=O	92.8	31.7	48.2	–	–
COc1ccc2c(c1)C(=O)/C(=C/c1ccc(N3CCN(C)CC3)nc1)CC2	84.9	34.7	51.1	–	–
CN1CCN(c2ccc(/C=C3\CCc4cc(Br)ccc4C3=O)nc2)CC1	96.8	40.6	55.9	–	–
S=C(S)N1CCCC1 [PYRROLIDINE DITHIOCARBAMATE]	–	–	–	36	48
CN1CCN(c2ccc(/C=C3\CCc4ccc(F)cc4C3=O)cn2)CC1	88.7	35.3	51.6	–	–
O=C1/C(=C/c2ccc(-n3ccnc3)cc2)CCc2ccc(F)cc21	98	19	34.3	–	–
CN1CCN(c2ccc(/C=C3\CCc4ccc(F)cc4C3=O)cc2)CC1	91.5	37.3	57.3	–	–
O=C1/C(=C/c2ccc(N3CCOCC3)nc2)CCc2ccc(O)cc21	104	30.8	48	–	–
O=C1/C(=C/c2ccc(N3CCOCC3)cc2)CCc2ccc(Br)cc21	82.7	22.4	38.6	–	–
CN1CCN(c2ccc(/C=C3\CCc4cc(Br)ccc4C3=O)cc2)CC1	87	42.4	53.3	–	–
O=C1/C(=C/c2ccc(N3CCOCC3)cc2)CCc2ccc(O)cc21	81.6	32.3	48.9	–	–
O=C1/C(=C/c2ccc(-n3ccnc3)cc2)CCc2cc(F)ccc21	80.7	39.4	54.9	–	–
CN1CCN(c2ccc(/C=C3\CCc4ccc(F)cc4C3=O)nc2)CC1	93.5	30.5	47.2	–	–

SMILES	viability at 2.5 µM [1] [%]	inhibition at 2.5 µM (RAW264.7 [2]) [%]	inhibition at 2.5 µM (RAW264.7 [3]) [%]	inhibition at 10 µM (RAW264.7 [4]) [%]	inhibition at 10 µM (RAW264.7 [5]) [%]
O=C1/C(=C/c2ccc(N3CCOCC3)cc2)CCc2cc(F)ccc21	81.1	32.1	48.7	–	–
COc1ccc2c(c1)C(=O)/C(=C/c1ccc(N3CCOCC3)cc1)CC2	82.2	30.5	47.2	–	–
CN1CCN(c2ccc(/C=C3\CCc4cc(F)ccc4C3=O)cn2)CC1	98.2	32.8	49.3	–	–
COc1ccc2c(c1)CC/C(=C\c1ccc(N3CCN(C)CC3)nc1)C2=O	88.9	39.6	55	–	–
COc1ccc2c(c1)CC/C(=C\c1ccc(N3CCOCC3)cc1)C2=O	89.3	31.6	53.1	–	–
CN1CCN(c2ccc(/C=C3\CCc4ccc(Br)cc4C3=O)cn2)CC1	104	51	63.4	–	–
COc1ccc2c(c1)C(=O)/C(=C/c1ccc(N3CCN(C)CC3)cc1)CC2	98	33.6	50.1	–	–
O=C1/C(=C/c2ccc(N3CCOCC3)cc2)CCc2cc(Br)ccc21	92.8	29.6	46.4	–	–
CN1CCN(c2ccc(/C=C3\CCc4ccc(O)cc4C3=O)nc2)CC1	98.6	41.6	56.7	–	–
COc1ccc2c(c1)C(=O)/C(=C/c1ccc(-n3ccnc3)cc1)CC2	88.7	39.8	55.3	–	–
O=C1/C(=C/c2ccc(-n3ccnc3)cc2)CCc2ccc(Br)cc21	91.2	39.8	55.3	–	–
O=C1/C(=C/c2ccc(N3CCOCC3)cc2)CCc2ccc(F)cc21	82.7	29.5	46.2	–	–
COc1ccc2c(c1)CC/C(=C\c1ccc(N3CCN(C)CC3)cc1)C2=O	91.3	34.6	50.9	–	–
COc1ccc2c(c1)C(=O)/C(=C/c1ccc(N3CCN(C)CC3)cn1)CC2	89	35.3	51.6	–	–
CN1CCN(c2ccc(/C=C3\CCc4cc(Br)ccc4C3=O)cn2)CC1	87.8	39	54.7	–	–
O=C1/C(=C/c2ccc(N3CCOCC3)nc2)CCc2ccc(Br)cc21	96.2	23.8	36.1	–	–
COc1ccc2c(c1)C(=O)/C(=C/c1ccc(OC)c(C(F)(F)F)c1)CC2	114	51	44.2	–	–
O=C1/C(=C/c2ccc(-n3ccnc3)cc2)CCc2ccc(O)cc21	87.1	25.3	50.2	–	–
COc1ccc2c(c1)CC/C(=C\c1ccc(N3CCOCC3)nc1)C2=O	96	45	59.2	–	–
O=C1/C(=C/c2ccc(N3CCOCC3)nc2)CCc2cc(Br)ccc21	86.2	31.4	47.5	–	–
